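96-well plates; 48 h exposure; 5 concentrations. Endpoints by linear interpolation between flanking doses. Not reached: highest tested concentration assigned. Here, GI50 denotes the concentration required for 50% inhibition of growth. The concentration for full growth arrest is given as TGI.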

TGI and GI50 data for 13 compounds are collected here from PubChem BioAssay (NCI).

Common to all, as to assay: NCI tumour cell line growth inhibition, 48 h
The test system of assay [1] is A549 NSCLC.
Assay [2] has as its system ACHN renal.
For assay [3], the system named is CAKI-1 renal.
The subject of assay [4] is KM12 colon.
For assay [5], the system named is MDA-MB-231 breast.
The subject of assay [6] is OVCAR-3 ovarian.
The subject of assay [7] is PC-3 prostate.
For assay [8], the system named is SF-268 CNS.
Assay [9] relates to SNB-19 CNS.

For `CC12c3c4ccc(C=O)c3Oc3ccc(C=O)c(c31)Oc1ccc(C=O)c(c12)O4`, the TGI in [1], in assay [2], in assay [3], in assay [4], in [5] and in [6] was > 25 µM throughout. In addition, the TGI in assay [7], in assay [8] and in [9] was > 25 µM in each case.
With `O=C(CC(=O)Nc1ccccc1)NNC(Sc1ccccc1)c1cc(N=Nc2ccc(Br)cc2)ccc1O` (stereo unspecified), the TGI in [1], in [2], in assay [3], in [4], in [5] and in assay [6] was > 10 µM each time. Also, the TGI in assay [7] was > 10 µM; in assay [8], 8.9 µM; in [9], > 10 µM.
On to `CCCCOCCOC1=C(Cl)C(=O)c2c(O)ccc(O)c2C1=O`, for which the TGI in assay [1] came out at 4.64 µM; in assay [2], 1.1 µM; in assay [3] it was 1.36 µM; in [4], 3.37 µM; in assay [5], 1.07 µM; in assay [6], 1.63 µM. Moreover, the TGI came out at 3.08 µM in assay [7], 3.18 µM in assay [8] and 1.82 µM in assay [9].
In the case of `COc1cc(O)c2c(=O)c(OC)c(-c3ccc(OC)c(O)c3)oc2c1`, the TGI in assay [1] was > 100 µM; in [2] it was > 100 µM; in assay [3] it was 74.4 µM; in [4], > 100 µM; in assay [5], > 100 µM; in assay [6], > 100 µM. Also, the TGI in [7], in assay [8] and in assay [9] was > 100 µM each time.
On to `COc1cc(Nc2ccc3c(c2)CCC3)nc(OC)n1`, for which the TGI in assay [1] was > 100 µM; in assay [2] it was 73.7 µM; in assay [3], > 100 µM; in assay [4], 91.9 µM; in assay [5], > 100 µM; in assay [6], > 100 µM. In addition, the TGI in assay [7], in [8] and in assay [9] was > 100 µM in each case.
`C/C1=C\[C@H](C)C[C@H](C)OC(=O)[C@H](C)NC(=O)[C@@H](Cc2ccc(O)c(Br)c2)N(C)C(=O)[C@H](C)NC(=O)[C@@H](C)C1`: the TGI was > 25 µM in assay [1]; 1.04 µM in assay [2]; 0.0274 µM in assay [3]; > 25 µM in [4]; 0.518 µM in assay [5]; 3.84 µM in assay [6]. The TGI is 24.6 µM in assay [7], 1.57 µM in assay [8] and 9.32 µM in [9].
As for `COc1cc2c(cc1OCCCCCN1CCN(c3ncnc4ccccc34)CC1)N=CC1CCCN1C2=O` (stereo unspecified), the GI50 in assay [1] is 0.0307 µM; in assay [2] it was 0.0523 µM; in assay [3], 0.0292 µM; in assay [4], 0.0289 µM; in assay [5], 0.0193 µM; in assay [6], 0.0223 µM. In addition, the GI50 in assay [7] was 0.0218 µM; in [8], 0.0349 µM; in assay [9] it was 0.0333 µM. Further, the TGI worked out at 25.8 µM in assay [1]; 4.15 µM in assay [2]; 1.17 µM in [3]; 0.952 µM in [4]; 0.0604 µM in assay [5]; 0.0512 µM in assay [6]. Moreover, the figures for the TGI in assay [7], in [8] and in assay [9] were 0.154 µM, 2.07 µM and 3.53 µM, respectively.
As for `COc1ccc(C(=O)NCCN(C)C)c2nc3ccccc3cc12`, the TGI in [1] amounted to 2.4 µM; in [2] it was 2.5 µM; in assay [3], 7.59 µM; in assay [4], 7.79 µM; in [5], 10.9 µM; in [6], 9.93 µM. Further, the TGI was 4.82 µM in assay [7], 9.82 µM in assay [8] and 9.49 µM in assay [9].
As to `O=c1onc2n1-c1cc(Cl)ccc1C(=S)N1CSCC21` (stereo unspecified), the TGI in [1], in assay [2], in assay [3], in assay [4], in assay [5] and in assay [6] was > 100 µM throughout. For the same compound, the TGI in [7], in assay [8] and in assay [9] was > 100 µM in each case.
Consider `Nc1ncc2c(n1)-c1ccccc1OC2N1CCCC1` (stereo unspecified), for which the TGI in assay [1], in assay [2], in assay [3], in [4], in assay [5] and in [6] was > 100 µM each time. Also, the TGI in assay [7], in assay [8] and in assay [9] was > 100 µM each time.
As to `CO/N=C(/C(=O)OC)c1ccccc1COc1ccccc1C(F)(F)F`, the TGI in [1], in assay [2], in [3], in assay [4], in assay [5] and in assay [6] was > 100 µM each time. In addition, the TGI in [7], in assay [8] and in assay [9] was > 100 µM throughout.
As to `O=c1c2c(no[n+]2[O-])c2ccccc2n1-c1ccccc1`, the TGI in assay [1] was determined as 35.1 µM; in assay [2], 42.7 µM; in [3], 6.39 µM; in assay [4] it was 22 µM; in assay [5], 24.8 µM; in assay [6] it was 19.8 µM. In addition, the TGI is 21.4 µM in assay [7], 20.1 µM in assay [8] and 25 µM in assay [9].
On to `O=C(O)c1cccc(S(=O)(=O)NN2C(=O)CSC2c2ccc(Cl)cc2Cl)c1` (stereo unspecified), for which the TGI in [1], in [2], in assay [3], in assay [4], in assay [5] and in assay [6] was > 100 µM throughout. Also, the TGI in [7], in assay [8] and in [9] was > 100 µM throughout.
